The source of these data is patent US10758534B2 (Vertex Pharmaceuticals Incorporated, priority 2014, dated 2020).

Structures are written as SMILES. Read-outs that look alike come from different tables or passages of the source.

In this test the target is T1, F508del (Homo sapiens, UniProt P13569, DEL508-508).
T1 construct: expressed in transfected cells
Description: Protocol 2: FRET membrane potential optical assay (VIPR), identification of correction compounds. It is filed as cell-based. In short, it runs like this:
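NIH3T3 mouse fibroblasts stably expressing F508del were treated with test compound for 16 hrs at 37° C. in serum-free medium; 27° C. incubation served as positive control. F508del was activated with 10 μM forskolin plus 20 μM genistein in Cl^−-free medium, and Cl^− efflux-driven depolarization was read by DiSBAC2(3)/CC2-DMPE FRET.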

Setting [1] is: Table 3, compounds of Table 1 as modulators of CFTR activity, protocol not stated.
[2] abbreviates: F508del CFTR modulator activity, compounds of Table 1, read-out: EC30.

The EC30 is the concentration needed for an effect of 30%.

T1 sequence (P13569 with tags, fused parts or gaps DEL508-508): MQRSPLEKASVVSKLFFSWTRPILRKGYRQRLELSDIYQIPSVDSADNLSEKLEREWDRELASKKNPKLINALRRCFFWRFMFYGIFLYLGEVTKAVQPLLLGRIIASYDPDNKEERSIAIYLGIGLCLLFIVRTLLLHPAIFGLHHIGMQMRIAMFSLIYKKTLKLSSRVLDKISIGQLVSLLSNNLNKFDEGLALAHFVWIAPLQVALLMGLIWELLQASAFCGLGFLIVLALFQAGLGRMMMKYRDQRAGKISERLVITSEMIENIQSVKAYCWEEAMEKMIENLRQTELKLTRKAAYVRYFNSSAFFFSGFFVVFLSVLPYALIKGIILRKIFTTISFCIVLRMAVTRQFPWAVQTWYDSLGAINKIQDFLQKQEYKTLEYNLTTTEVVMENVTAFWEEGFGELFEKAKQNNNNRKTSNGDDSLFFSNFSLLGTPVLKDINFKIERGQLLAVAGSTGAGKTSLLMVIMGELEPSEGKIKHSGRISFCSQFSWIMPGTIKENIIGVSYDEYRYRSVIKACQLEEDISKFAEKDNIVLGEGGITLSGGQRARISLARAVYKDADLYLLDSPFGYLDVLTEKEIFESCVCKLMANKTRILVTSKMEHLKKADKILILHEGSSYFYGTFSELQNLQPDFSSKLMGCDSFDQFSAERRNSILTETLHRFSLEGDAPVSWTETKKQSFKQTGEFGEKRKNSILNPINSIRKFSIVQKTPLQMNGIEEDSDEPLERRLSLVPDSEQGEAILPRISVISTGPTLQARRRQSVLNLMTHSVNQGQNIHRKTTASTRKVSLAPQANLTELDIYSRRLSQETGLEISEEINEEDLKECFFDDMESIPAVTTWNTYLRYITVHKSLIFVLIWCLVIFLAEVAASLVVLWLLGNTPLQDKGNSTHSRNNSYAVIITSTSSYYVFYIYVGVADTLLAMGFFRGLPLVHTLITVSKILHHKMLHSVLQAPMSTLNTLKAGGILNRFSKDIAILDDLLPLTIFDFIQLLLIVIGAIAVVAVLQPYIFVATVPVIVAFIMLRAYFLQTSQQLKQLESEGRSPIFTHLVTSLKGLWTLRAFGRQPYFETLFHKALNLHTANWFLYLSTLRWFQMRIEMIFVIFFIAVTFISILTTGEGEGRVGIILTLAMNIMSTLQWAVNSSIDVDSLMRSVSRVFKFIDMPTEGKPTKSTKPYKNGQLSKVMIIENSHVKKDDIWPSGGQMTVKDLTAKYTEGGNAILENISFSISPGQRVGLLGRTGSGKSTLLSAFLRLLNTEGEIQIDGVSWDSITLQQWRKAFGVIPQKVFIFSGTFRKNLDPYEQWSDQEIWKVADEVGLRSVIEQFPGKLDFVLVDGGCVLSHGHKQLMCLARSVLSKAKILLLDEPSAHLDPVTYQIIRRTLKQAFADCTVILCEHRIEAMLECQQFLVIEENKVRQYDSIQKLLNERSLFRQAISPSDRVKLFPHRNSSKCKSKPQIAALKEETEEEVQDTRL

As to `CC1(C)CCCc2cc(C(=O)NS(=O)(=O)c3cccc(N)c3)c(-c3ccccc3)nc21` [Compound 685, N-(3-aminophenyl)sulfonyl-8,8-dimethyl-2-phenyl-6,7-dihydro-5H-quinoline-3-carboxamide], the EC30 result under setting [1] is “+++ (“+++” means <3 uM)”.

Regarding `CC1CN(c2ncccc2C(=O)NS(=O)(=O)c2cccc(NCc3cccc(F)c3F)n2)C(C)(C)C1` (stereo not drawn) [Compound 2640, N—[[6-[(2,3-difluorophenyl)methylamino]-2-pyridyl]sulfonyl]-2-(2,2,4-trimethylpyrrolidin-1-yl)pyridine-3-carboxamide], the EC30 under setting [2] was below 3000 nM.

For `C[C@@H]1CN(c2nc(C(C)(C)C)c(C3=CCN(C(=O)CC4CCCCC4)CC3)cc2C(=O)NS(=O)(=O)c2cccc(N)n2)C(C)(C)C1` [Compound 2596, N-[(6-amino-2-pyridyl)sulfonyl]-6-tert-butyl-5-[1-(2-cyclohexylacetyl)-3,6-dihydro-2H-pyridin-4-yl]-2-[(4S)-2,2,4-trimethylpyrrolidin-1-yl]pyridine-3-carboxamide], the EC30 under setting [2] is below 3000 nM.

Regarding `Cc1cc(C)c(Oc2nc(-c3ccc(F)c4c3OCO4)ccc2C(=O)NS(=O)(=O)c2cccc(N)n2)c(C)c1` [Compound 345, N-[(6-amino-2-pyridyl)sulfonyl]-6-(7-fluoro-1,3-benzodioxol-4-yl)-2-(2,4,6-trimethylphenoxy)pyridine-3-carboxamide], under setting [1], the EC30 result is on record as “+++ (“+++” means <3 uM)”.

In the case of `CC1CN(c2ncccc2C(=O)NS(=O)(=O)c2cccc(N3CCN(c4cnccn4)CC3)n2)C(C)(C)C1` (stereo not drawn) [Compound 2254, N—[[6-(4-pyrazin-2-ylpiperazin-1-yl)-2-pyridyl]sulfonyl]-2-(2,2,4-trimethylpyrrolidin-1-yl)pyridine-3-carboxamide], under setting [2], the EC30 lay in the range of 3000 to 10000 nM.

As for `CC1CN(c2ncccc2C(=O)NS(=O)(=O)c2cccc(N[C@H]3CC[C@H](NC(=O)OC(C)(C)C)CC3)n2)C(C)(C)C1` (stereo partly drawn) [Compound 2439, tert-butyl N—[4-[[6-[[2-(2,2,4-trimethylpyrrolidin-1-yl)pyridine-3-carbonyl]sulfamoyl]-2-pyridyl]amino]cyclohexyl]carbamate], the concentration for an effect of 30% (EC30) under setting [2] is below 3000 nM.

For `COc1ccc2nc(N3C[C@@H](C)CC3(C)C)c(C(=O)NS(=O)(=O)c3ccc[nH]c3=O)cc2c1` [Compound 2419, 6-methoxy-N-[(2-oxo-1H-pyridin-3-yl)sulfonyl]-2-[(4S)-2,2,4-trimethylpyrrolidin-1-yl]quinoline-3-carboxamide], the EC30 under setting [2] is 3000 to 10000 nM.

Take `CC(C)CC(C)Oc1cc(-c2ccc(C(=O)NS(=O)(=O)c3cccc(N)n3)c(N3CC(C)CC3(C)C)n2)ccn1` (stereo not drawn) [Compound 384, N-[(6-amino-2-pyridyl)sulfonyl]-6-[2-(1,3-dimethylbutoxy)-4-pyridyl]-2-(2,2,4-trimethylpyrrolidin-1-yl)pyridine-3-carboxamide]: the 30% effect concentration (EC30) entry under setting [1] is on record as “+++ (“+++” means <3 uM)”.

Regarding `CC1CN(c2ncccc2C(=O)NS(=O)(=O)c2cccc(Nc3cccc4ccccc34)n2)C(C)(C)C1` (stereo not drawn) [Compound 2136, N—[[6-(1-naphthylamino)-2-pyridyl]sulfonyl]-2-(2,2,4-trimethylpyrrolidin-1-yl)pyridine-3-carboxamide], the EC30 under setting [2] was below 3000 nM.

Regarding `COc1ccc(F)c(-c2ccc(C(=O)NS(=O)(=O)c3ccc[nH]c3=O)c(N3C[C@@H](C)CC3(C)C)n2)c1` [Compound 2606, 6-(2-fluoro-5-methoxy-phenyl)-N-[(2-oxo-1H-pyridin-3-yl)sulfonyl]-2-[(4S)-2,2,4-trimethylpyrrolidin-1-yl]pyridine-3-carboxamide], the EC30 under setting [2] was below 3000 nM.

On to `CCCOc1cc(-c2ccc(C(=O)NS(=O)(=O)c3ccc[nH]c3=O)c(Oc3c(C)cc(C)cc3C)n2)ccc1Cl` [Compound 72, 6-(4-chloro-3-propoxy-phenyl)-N-[(2-oxo-1H-pyridin-3-yl)sulfonyl]-2-(2,4,6-trimethylphenoxy)pyridine-3-carboxamide], for which the EC30 result under setting [1] was “++ (“++” means between 3 uM and 10 uM)”.

Take `Cc1cccc(C)c1Oc1nc(-c2cc(F)cc(OCC(C)C)c2)ccc1C(=O)NS(=O)(=O)c1ccc(O)c(N)n1` [Compound 2331, N-[(6-amino-5-hydroxy-2-pyridyl)sulfonyl]-2-(2,6-dimethylphenoxy)-6-(3-fluoro-5-isobutoxy-phenyl)pyridine-3-carboxamide]: the EC30 under setting [2] is below 3000 nM.

On to `COC1CCN(c2cccc(S(=O)(=O)NC(=O)c3cccnc3N3CC(C)CC3(C)C)n2)CC1` (stereo not drawn) [Compound 2732], for which, under setting [2], the concentration for an effect of 30% (EC30) is 3000 to 10000 nM.

Regarding `CC1CN(c2ncccc2C(=O)NS(=O)(=O)c2cccc(N3CCC(Cc4ccccc4)C3)n2)C(C)(C)C1` (stereo not drawn) [Compound 2123, N—[[6-(3-benzylpyrrolidin-1-yl)-2-pyridyl]sulfonyl]-2-(2,2,4-trimethylpyrrolidin-1-yl)pyridine-3-carboxamide], under setting [2], the EC30 is below 3000 nM.

Turning to `Cc1cc(C)c(Cn2nc(C(C)(C)C)cc2C(=O)NS(=O)(=O)c2cccc(N)c2C)c(C)c1` [Compound 123, N-(3-amino-2-methyl-phenyl)sulfonyl-5-tert-butyl-2-[(2,4,6-trimethylphenyl)methyl]pyrazole-3-carboxamide], the EC30 entry under setting [1] is “+++ (“+++” means <3 uM)”.

As for `C#CCCC(=O)Nc1cccc(S(=O)(=O)NC(=O)c2ccc(-c3ccc(Cl)c(OCCC)c3)nc2N2[C@H](C)CC[C@@H]2C)n1` [Compound 2540, 6-(4-chloro-3-propoxy-phenyl)-2-[(2R,5S)-2,5-dimethylpyrrolidin-1-yl]-N-[[6-(pent-4-ynoylamino)-2-pyridyl]sulfonyl]pyridine-3-carboxamide], the EC30 under setting [2] is below 3000 nM.

Consider `COc1ccc(-c2ccc(C(=O)NS(=O)(=O)c3ccc[nH]c3=O)c(N3C[C@@H](C)CC3(C)C)n2)cc1` [Compound 2080, 6-(4-methoxyphenyl)-N-[(2-oxo-1H-pyridin-3-yl)sulfonyl]-2-[(4S)-2,2,4-trimethylpyrrolidin-1-yl]pyridine-3-carboxamide], for which, under setting [2], the concentration for an effect of 30% (EC30) was 3000 to 10000 nM.

Turning to `COc1cc(F)cc(-c2ccc(C(=O)NS(=O)(=O)c3cccc(N)n3)c(Oc3c(C)cc(C)cc3C)n2)c1` [Compound 682, N-[(6-amino-2-pyridyl)sulfonyl]-6-(3-fluoro-5-methoxy-phenyl)-2-(2,4,6-trimethylphenoxy)pyridine-3-carboxamide], the 30% effect concentration (EC30) entry under setting [1] is on record as “+++ (“+++” means <3 uM)”.

Consider `Cc1ccc(O)c(-c2ccc(C(=O)NS(=O)(=O)c3cccc(N)n3)c(N3C[C@@H](C)CC3(C)C)n2)c1` [Compound 2034, N-[(6-amino-2-pyridyl)sulfonyl]-6-(2-hydroxy-5-methyl-phenyl)-2-[(4S)-2,2,4-trimethylpyrrolidin-1-yl]pyridine-3-carboxamide], for which, under setting [2], the EC30 is below 3000 nM.

With `CC(C)COc1cc(F)cc(-c2ccc(C(=O)NS(=O)(=O)c3cccc(N)n3)c(OC3CCOC3)n2)c1` (stereo not drawn) [Compound 433, N-[(6-amino-2-pyridyl)sulfonyl]-6-(3-fluoro-5-isobutoxy-phenyl)-2-tetrahydrofuran-3-yloxy-pyridine-3-carboxamide], the concentration for an effect of 30% (EC30) entry under setting [1] is given as “+++ (“+++” means <3 uM)”.

As for `Cc1ccc(-c2ccc(C(=O)NS(=O)(=O)c3ccc[nH]c3=O)c(N3[C@H](C)CC[C@@H]3C)n2)cc1` [Compound 392, 2-[(2R,5S)-2,5-dimethylpyrrolidin-1-yl]-N-[(2-oxo-1H-pyridin-3-yl)sulfonyl]-6-(p-tolyl)pyridine-3-carboxamide], under setting [1], the EC30 entry is “++ (“++” means between 3 uM and 10 uM)”.
